Where two headings read alike, the source gives them in different places.
What was measured:
[1] = system: AHF; assay: AHF retention after extraction of AHF concentrate with alcohols; assay type: biochemical, human; settings: 0.3% TNBP and 1% TRITON X-45; 10% (w/v) alcohol, 30 minutes, ambient
[2] = water
[3] = Removal of TRITON X-45 from AHF concentrate with alcohols; settings: 0.3% TNBP and 1% TRITON X-45; 10% (w/v) alcohol, 30 minutes, ambient
[4] = system: Antithrombin III; assay: Protein functional activity after extraction of plasma: Antithrombin III; assay type: biochemical; settings: 10% extractant, 30 minutes, ambient
Procedure: (§2) Plasma was extracted with either 10% "FORANE" or 10% 2-octanol for 30 minutes at ambient temperature.

[5] = Extraction of process chemicals from plasma: TNBP; settings: 2% TNBP in plasma
Excerpt: (§1) The results are in general agreement with those observed extracting from saline.

[6] = Extraction of process chemicals from saline: TRITON X114; settings: 1% TRITON X114 in saline
[7] = system: AHF; assay: Recovery of AHF procoagulant activity following extraction; assay type: biochemical; settings: for AHF recovery: AHF concentrate or plasma; for AHF % Recovery / AHF Activity After: 5% extractant
[8] = Extraction of process chemicals from plasma: TWEEN 80; settings: 1% TWEEN 80 in plasma
Excerpt: as §1

[9] = Extraction of process chemicals from saline: TRITON X45; settings: 1% TRITON X45 in saline
[10] = Extraction of process chemicals from plasma: TRITON X114; settings: 1% TRITON X114 in plasma
Excerpt: as §1

[11] = Extraction of process chemicals from saline: Nonoxynol; settings: 1% Nonoxynol in saline; 5% extractant
[12] = Extraction of process chemicals from saline: TRITON X100; settings: 1% TRITON X100 in saline
[13] = system: AHF; assay: Protein functional activity after extraction of plasma: AHF; assay type: biochemical; settings: 10% extractant, 30 minutes, ambient
[14] = Extraction of process chemicals from plasma: TRITON X45; settings: 1% TRITON X45 in plasma
Excerpt: as §1

[15] = Extraction of process chemicals from plasma: TRITON X100; settings: 1% TRITON X100 in plasma
Excerpt: as §1

[16] = Extraction of process chemicals from saline: TWEEN 80; settings: 1% TWEEN 80 in saline
[17] = system: AHF; assay: AHF activity retained after depyrogenation extraction; assay type: biochemical; settings: 10% (v/v) extractant, 30 minutes, 24° C.
Procedure: AHF concentrate containing 6.4 ng/ml of endotoxin was extracted by mechanically shaking with 10% (v/v) 2-octanol or "FORANE" for 30 minutes at 24° C. After separation of the extractant by centrifugation, the pyrogen level was determined by the Limulus Amebocyte Lysate assay with a sensitivity of 0.025 ng/ml of endotoxin. The effect of these treatments is shown below in Table XI. […] More than 90% of the original AHF activity was retained following the extraction.

[18] = Extraction of process chemicals from saline: TNBP; settings: 1% TNBP in saline
[19] = system: Factor IX; assay: Protein functional activity after extraction of plasma: Factor IX; assay type: biochemical; settings: 10% extractant, 30 minutes, ambient
Procedure: as §2

[20] = Aqueous solubility of alcohols; settings: water
[21] = system: Vesicular stomatitis virus; assay: microbe, parasite or virus in culture; assay type: cell-based
[22] = Removal of TNBP from AHF concentrate with halogenated hydrocarbons; settings: 0.3% TNBP; 5% (w/v) halogenated hydrocarbon, 30 minutes, ambient
Procedure: (§3) An AHF concentrate prepared from human plasma was treated with 0.3% TNBP and either 1% "TRITON X-45" or 1% "TWEEN 80" to inactivate virus. Following treatment, the solution was extracted one time with 5% (w/v) of a halogenated hydrocarbon by mixing for a period of 30 minutes at ambient temperature. The quantity of residual AHF, TNBP and detergent present in the aqueous solution was measured and compared with the unextracted control.

[23] = system: AHF; assay: AHF retention after extraction of AHF concentrate with halogenated hydrocarbons; assay type: biochemical, human; settings: 5% (w/v) halogenated hydrocarbon, 30 minutes, ambient
Procedure: as §3

[24] = Removal of TRITON X-45 from AHF concentrate with halogenated hydrocarbons; settings: 1% TRITON X-45; 5% (w/v) halogenated hydrocarbon, 30 minutes, ambient
Procedure: as §3

[25] = Removal of TWEEN 80 from AHF concentrate with halogenated hydrocarbons; settings: 1% TWEEN 80; 5% (w/v) halogenated hydrocarbon, 30 minutes, ambient
Procedure: as §3

[26] = Merocyanine removal from saline on extraction with FORANE; settings: 10% FORANE
[27] = system: AHF; assay: AHF recovery after extraction of cryoprecipitate; assay type: biochemical; settings: extracted two times, 10% FORANE or 10% FORANE and 5% heptanol; sterile filtered, lyophilized
[28] = Removal of TRITON X-45 from cryoprecipitate; settings: extracted two times, 10% FORANE or 10% FORANE and 5% heptanol; lyophilized
[29] = Removal of TNBP from cryoprecipitate; settings: extracted two times, 10% FORANE or 10% FORANE and 5% heptanol; lyophilized
[30] = system: red blood cells; assay: Red blood cell retention on extraction with FORANE; design: species or system human; settings: 10% FORANE

Compound: CCCCCCCO [heptanol]
- AHF (% Retention) [1]: 98%
- Aqueous Solubility [2]: 0.2 g %
- TRITON X-45 (% Removal) [3]: 100%

Compound: CCCCCCC(C)O (stereo not shown) [2-octanol]
- % Retention Antithrombin III [4]: 100%
- Percent Extraction ([5]; 5% extractant): 98%
- Percent Extraction ([6]; 5% extractant): 94%
- AHF recovery [7]: approximately 90%
- AHF % Recovery ([7]; AHF concentrate): 89%
- AHF Activity After ([7]; AHF concentrate): 2.35 units/mL
- AHF % Recovery ([7]; plasma): 91%
- AHF Activity After ([7]; plasma): 1.15 units/mL
- Percent Extraction ([8]; 5% extractant): 21%
- Percent Extraction ([9]; 5% extractant): 83-96%
- AHF (% Retention) [1]: 93%
- Percent Extraction ([10]; 5% extractant): 33%
- Percent Extraction [11]: 49%
- Percent Extraction ([12]; 5% extractant): 60%
- % Retention AHF [13]: 95%
- Percent Extraction ([14]; 5% extractant): 62%
- TRITON X-45 (% Removal) [3]: 100%
- Percent Extraction ([15]; 5% extractant): 19%
- Percent Extraction ([16]; 5% extractant): 0-12%
- original AHF activity retained [17]: More than 90%
- Percent Extraction ([18]; 5% extractant): 99%
- % Retention Factor IX [19]: 99%
- Aqueous Solubility [20]: 0.05 g %

Compound: CCCCCCCCCCCO [undecanol]
- AHF (% Retention) [1]: 94%
- TRITON X-45 (% Removal) [3]: 100%
- Aqueous Solubility [20]: < 0.05 g %

Compound: CCCCN1C(=O)C(=CC=CC=C2Oc3ccccc3N2CCCS(=O)(=O)O)C(=O)N(CCCC)C1=S [merocyanine 540]
- Final Virus Titer [21]: < -0.5
- Virus titer, Control (no light) [21]: 3.7
- log reduction at 40 µg/mL ([21]; Vesicular stomatitis virus, 1 h, read-out: Total Virus Kill): > 4.2

Compound: FC(F)(F)C(F)(F)C(F)(F)C(F)(F)C(F)(F)C(F)(F)F [Perfluorohexane]
- Percent Removal TNBP [22]: 27%
- % Retention AHF [23]: 98%
- Percent Removal TRITON X-45 [24]: 0%
- Percent Removal TWEEN 80 [25]: 0%

Compound: FC(F)(Cl)C(F)(Cl)Cl [1,2,2-Trifluorotrichloroethane, 1,2,2-trifluorotrichloroethane]
- Percent Removal TNBP [22]: 93%
- % Retention AHF [23]: 98%
- Percent Removal TRITON X-45 [24]: 8%
- Percent Removal TWEEN 80 [25]: 3%

Compound: FC1(F)C(F)(F)C(F)(F)C2(F)C(F)(F)C(F)(F)C(F)(F)C(F)(F)C2(F)C1(F)F (stereo not shown) [Perfluorodecalin]
- Percent Removal TNBP [22]: 14%
- % Retention AHF [23]: 107%
- Percent Removal TRITON X-45 [24]: 0%
- Percent Removal TWEEN 80 [25]: 0%

Compound: CCCCCO [amyl alcohol]
- AHF (% Retention) [1]: 1%
- Aqueous Solubility [2]: 2.3 g %
- TRITON X-45 (% Removal) [3]: 100%

Compound: FC(F)(F)C(F)(F)C(F)(F)C(F)(F)N(C(F)(F)C(F)(F)C(F)(F)C(F)(F)F)C(F)(F)C(F)(F)C(F)(F)C(F)(F)F [Perfluorotributyl amine]
- Percent Removal TNBP [22]: 31%
- % Retention AHF [23]: 112%
- Percent Removal TRITON X-45 [24]: 0%
- Percent Removal TWEEN 80 [25]: 3%

Compound: CC(C)CCO [isoamyl alcohol]
- AHF (% Retention) [1]: 1%
- TRITON X-45 (% Removal) [3]: 100%
- Aqueous Solubility [20]: 2.0 g %

Compound: CCCCCCCCO [1-octanol]
- AHF (% Retention) [1]: 96%
- TRITON X-45 (% Removal) [3]: 100%
- Aqueous Solubility [20]: 0.05 g %

Compound: CCCCCCCCCO [1-nonanol]
- AHF (% Retention) [1]: 100%
- TRITON X-45 (% Removal) [3]: 100%

Compound: CCCCCO [1-pentanol]
- Percent Extraction ([5]; 5% extractant): 98%
- Percent Extraction ([6]; 5% extractant): 91%
- AHF recovery [7]: approximately 1%
- AHF % Recovery ([7]; AHF concentrate): 1%
- AHF Activity After ([7]; AHF concentrate): 0.02 units/mL
- AHF % Recovery ([7]; plasma): 1%
- AHF Activity After ([7]; plasma): 0.01 units/mL
- Percent Extraction ([8]; 5% extractant): 7%
- Percent Extraction ([9]; 5% extractant): 97%
- Percent Extraction ([10]; 5% extractant): 75%
- Percent Extraction [11]: 92%
- Percent Extraction ([12]; 5% extractant): 92%
- Percent Extraction ([14]; 5% extractant): 80%
- Percent Extraction ([15]; 5% extractant): 65%
- Percent Extraction ([16]; 5% extractant): 28-42%
- Percent Extraction ([18]; 5% extractant): 99%

Compound: CCCCCCCCCCO [1-decanol]
- AHF (% Retention) [1]: 100%
- TRITON X-45 (% Removal) [3]: 100%
- Aqueous Solubility [20]: < 0.05 g %

Compound: CCCCCCO [hexanol]
- AHF (% Retention) [1]: 63%
- TRITON X-45 (% Removal) [3]: 100%

Compound: FC(F)OC(Cl)C(F)(F)F (stereo not shown) [FORANE, 1-chloro-2,2,2-trifluoroethyl difluoromethyl ether]
- % Retention Antithrombin III [4]: 100%
- Percent Extraction ([5]; 5% extractant): 94%
- Percent Extraction ([5]; 20% extractant): 96%
- Percent Extraction ([6]; 5% extractant): 99%
- Percent Extraction ([6]; 20% extractant): 99%
- AHF recovery [7]: ~100%
- AHF % Recovery ([7]; AHF concentrate): 102%
- AHF Activity After ([7]; AHF concentrate): 2.69 units/mL
- Merocyanine % Removal [26]: 83%
- AHF recovery [27]: 95%
- Percent Extraction ([8]; 20% extractant): 66%
- Percent Extraction ([9]; 5% extractant): 99%
- Percent Extraction ([9]; 20% extractant): 99%
- Percent Removal TRITON X-45 [28]: 96%
- Percent Extraction ([10]; 5% extractant): 96%
- Percent Extraction ([10]; 20% extractant): 96%
- Percent Removal TNBP [22]: 99%
- Percent Removal TNBP [29]: 99.88%
- Percent Extraction ([12]; 5% extractant): 99%
- Percent Extraction ([12]; 20% extractant): 99%
- % Retention AHF [13]: 98%
- % Retention AHF [23]: 100%
- Percent Removal TRITON X-45 [24]: 99%
- Percent Removal TWEEN 80 [25]: 87%
- Percent Extraction ([14]; 5% extractant): 91%
- Percent Extraction ([14]; 20% extractant): 99%
- Red Blood Cell Retention [30]: 97%
- Percent Extraction ([15]; 5% extractant): 95%
- Percent Extraction ([15]; 20% extractant): 96%
- Percent Extraction ([16]; 5% extractant): 85%
- Percent Extraction ([16]; 20% extractant): 87%
- original AHF activity retained [17]: More than 90%
- Percent Extraction ([18]; 5% extractant): 99%
- Percent Extraction ([18]; 20% extractant): 99%
- % Retention Factor IX [19]: 99%

Compound: FC(F)OC(F)(F)C(F)Cl (stereo not shown) [Ethrane, 2-chloro-1,1,2-trifluoroethyl difluoromethyl ether]
- Percent Removal TNBP [22]: 99%
- % Retention AHF [23]: 100%
- Percent Removal TRITON X-45 [24]: 99%

From patent publication US4909940A, “Extraction of process chemicals from labile biological mixtures with organic alcohols or with halogenated hydrocarbons” (priority 1987, dated 1990)
